Here are results for eight compounds from patent US20150157739A1, “Imidazo[2,1]thiazol-3-one derivatives” (Hoffmann-La Roche Inc., priority 2012, published 2015).

The target of assay [1] is T1, aggregated synthetic Aβ40 (Homo sapiens, UniProt P05067).
T1 construct: Synthetic Aβ40 is aggregated at a concentration of 50 μM
In words: Thiazin-red R displacement fluorescence assay on aggregated A-beta. The assay is classed as binding. As to conditions: displacement of Thiazin-red R from aggregated Aβ40; compound 0.3 nM to 10000 nM; 30 min room temperature; Ex 531 nm/Em 595 nm.

The target in assay [2] is T2, aggregated recombinant human-microtubule associated protein Tau (Homo sapiens, UniProt P10636).
T2 construct: Recombinant human-microtubule associated protein Tau purified from E. coli is aggregated at a concentration of 5 μM with Arachidonic Acid (100 μM) in Tris 10 mM pH8, 24 h at 37° C
T2 sequence (P10636 whole entry): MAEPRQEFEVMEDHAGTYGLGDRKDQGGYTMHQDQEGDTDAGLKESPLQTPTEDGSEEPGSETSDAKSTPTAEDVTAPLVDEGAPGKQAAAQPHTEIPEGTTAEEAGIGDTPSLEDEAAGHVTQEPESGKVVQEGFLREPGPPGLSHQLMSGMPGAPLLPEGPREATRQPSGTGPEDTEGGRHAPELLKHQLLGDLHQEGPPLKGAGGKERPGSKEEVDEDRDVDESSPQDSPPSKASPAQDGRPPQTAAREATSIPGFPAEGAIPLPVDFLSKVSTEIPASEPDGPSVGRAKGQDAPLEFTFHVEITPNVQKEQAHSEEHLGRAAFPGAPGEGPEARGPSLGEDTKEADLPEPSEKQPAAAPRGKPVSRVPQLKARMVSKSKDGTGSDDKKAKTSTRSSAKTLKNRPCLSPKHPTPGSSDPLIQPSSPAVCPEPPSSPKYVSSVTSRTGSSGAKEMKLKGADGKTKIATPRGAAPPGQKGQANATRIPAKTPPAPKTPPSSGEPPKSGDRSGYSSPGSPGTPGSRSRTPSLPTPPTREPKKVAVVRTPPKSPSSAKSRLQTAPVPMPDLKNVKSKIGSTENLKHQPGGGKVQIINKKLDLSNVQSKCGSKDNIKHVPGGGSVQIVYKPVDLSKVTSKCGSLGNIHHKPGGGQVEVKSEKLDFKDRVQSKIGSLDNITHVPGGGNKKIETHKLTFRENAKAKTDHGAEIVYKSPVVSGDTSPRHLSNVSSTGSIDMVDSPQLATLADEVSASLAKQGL
Description: Thiazin-red R displacement fluorescence assay on aggregated Tau. The assay is classed as binding. The conditions noted are these: displacement of Thiazin-red R from aggregated Tau; compound 0.3 nM to 10000 nM; 30 min room temperature; Ex 531 nm/Em 595 nm.

T1 sequence (P05067 672-711 limits assumed): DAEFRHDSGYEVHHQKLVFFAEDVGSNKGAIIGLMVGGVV

What is called IC50 is the midpoint of a concentration-inhibition curve. For the compound `COc1cc(/C=c2\sc3nc(-c4ccc(C(=O)N(C)CCF)cc4)cn3c2=O)cc(F)c1O` [Example 146], the IC50 is 1010 nM in assay [1] and 48 nM in assay [2].
On the same counts, the results for `COc1cc(/C=c2\sc3nc(-c4ccc(C(=O)N(C)CCCF)cc4)cn3c2=O)cc(F)c1O` [Example 147] are 448 nM and 41 nM.
On the same counts, the results for `COc1cc(/C=c2\sc3nc(-c4ccc(C(=O)OCCF)cc4)cn3c2=O)cc(Cl)c1O` [Example 148, 4-{2-[1-(3-Chloro-4-hydroxy-5-methoxy-phenyl)-meth-(Z)-ylidene]-3-oxo-2,3-dihydro-imidazo[2,1-b]thiazol-6-yl}-benzoic acid 2-fluoro-ethyl ester] are 38 nM and 4 nM.
Take `COc1cc(/C=c2\sc3nc(-c4ccc(C(=O)OCCCF)cc4)cn3c2=O)cc(Cl)c1O` [Example 149, 4-{2-[1-(3-Chloro-4-hydroxy-5-methoxy-phenyl)-meth-(Z)-ylidene]-3-oxo-2,3-dihydro-imidazo[2,1-b]thiazol-6-yl}-benzoic acid 3-fluoro-propyl ester]: the figures for the IC50 in assay [1] and in assay [2] were 168 nM and 2 nM, respectively.
On to `COc1cc(/C=c2\sc3nc(-c4ccc(C(=O)NCCNC(=O)OC(C)(C)C)cc4)cn3c2=O)cc(Cl)c1O` [Example 150, [2-(4-{2-[1-(3-Chloro-4-hydroxy-5-methoxy-phenyl)-meth-(Z)-ylidene]-3-oxo-2,3-dihydro-imidazo[2,1-b]thiazol-6-yl}-benzoylamino)-ethyl]-carbamic acid tert-butyl ester], for which the IC50 in assay [1] came out at 118 nM; in assay [2], 1.8 nM.
On the same counts, the results for `COc1cc(/C=c2\sc3nc(-c4ccc(C(=O)NCCN)cc4)cn3c2=O)cc(Cl)c1O` [Example 151, N-(2-Amino-ethyl)-4-{2-[1-(3-chloro-4-hydroxy-5-methoxy-phenyl)-meth-(Z)-ylidene]-3-oxo-2,3-dihydro-imidazo[2,1-b]thiazol-6-yl}-benzamide] are 24 nM and 12 nM.
Turning to `COc1cc(/C=c2\sc3nc(-c4cccc(S(=O)(=O)F)c4)cn3c2=O)cc(Cl)c1O` [Example 152, 3-{2-[1-(3-Chloro-4-hydroxy-5-methoxy-phenyl)-meth-(Z)-ylidene]-3-oxo-2,3-dihydro-imidazo[2,1-b]thiazol-6-yl}-benzenesulfonyl fluoride], the IC50 in assay [1] worked out at 19 nM; in assay [2], 7 nM.
For `Cc1cc(-c2cn3c(=O)/c(=C/c4cc(Cl)c(O)c(OCCCF)c4)sc3n2)cc(C)n1` [Example 153, 2-[1-[3-Chloro-5-(3-fluoro-propoxy)-4-hydroxy-phenyl]-meth-(Z)-ylidene]-6-(2,6-dimethyl-pyridin-4-yl)-imidazo[2,1-b]thiazol-3-one], in that order: 605 nM and 46 nM.
